Measured values published in patent US10899754B2, “Modulators of indoleamine 2,3-dioxygenase” (GLAXOSMITHKLINE INTELLECTUAL PROPERTY DEVELOPMENT LIMITED, priority 2016, dated 2021).

How the values were obtained:
[1] = system: human epithelial HeLa cells; assay: HeLa cytotoxicity assay (CellTiter-Glo); format: cell-based; conditions: pCC50
Description: (§1) Compounds of the present invention were tested via high-throughput cellular assays utilizing detection of kynurenine via mass spectrometry and cytotoxicity as end-points. For the mass spectrometry and cytotoxicity assays, human epithelial HeLa cells (CCL-2; ATCC®, Manassas, Va.) were stimulated with human interferon-γ (IFN-γ) (Sigma-Aldrich Corporation, St. Louis, Mo.) to induce the expression of indoleamine 2, 3-dioxygenase (IDO1). Compounds with IDO1 inhibitory properties decreased the amount of kynurenine produced by the cells via the tryptophan catabolic pathway. Cellular toxicity due to the effect of compound treatment was measured using CellTiter-Glo® reagent (CTG) (Promega Corporation, Madison, Wis.), which is based on luminescent detection of ATP, an indicator of metabolically active cells.
(§2) In preparation for the assays, test compounds were serially diluted 3-fold in DMSO from a typical top concentration of 1 mM or 5 mM and plated at 0.5 μL in 384-well, polystyrene, clear bottom, tissue culture treated plates with lids (Greiner Bio-One, Kremsmünster, Austria) to generate 11-point dose response curves. Low control wells (0% kynurenine or 100% cytotoxicity) contained either 0.5 μL of DMSO in the presence of unstimulated (−IFN-γ) HeLa cells for the mass spectrometry assay or 0.5 μL of DMSO in the absence of cells for the cytotoxicity assay, and high control wells (100% kynurenine or 0% cytotoxicity) contained 0.5 μL of DMSO in the presence of stimulated (+IFN-γ) HeLa cells for both the mass spectrometry and cytotoxicity assays.
(§3) Frozen stocks of HeLa cells were washed and recovered in DMEM high glucose medium with HEPES (Thermo Fisher Scientific, Inc., Waltham, Mass.) supplemented with 10% v/v certified fetal bovine serum (FBS) (Thermo Fisher Scientific, Inc., Waltham, Mass.), and 1× penicillin-streptomycin antibiotic solution (Thermo Fisher Scientific, Inc., Waltham, Mass.). The cells were diluted to 100,000 cells/mL in the supplemented DMEM medium. 50 μL of either the cell suspension, for the mass spectrometry assay, or medium alone, for the cytotoxicity assay, were added to the low control wells, on the previously prepared 384-well compound plates, resulting in 5,000 cells/well or 0 cells/well respectively. IFN-γ was added to the remaining cell suspension at a final concentration of 10 nM, and 50 μL of the stimulated cells were added to all remaining wells on the 384-well compound plates. The plates, with lids, were then placed in a 37° C., 5% CO2 humidified incubator for 2 days.
(§4) Following incubation, the 384-well plates were removed from the incubator and allowed to equilibrate to room temperature for 30 minutes. For the cytotoxicity assay, CellTiter-Glo® was prepared according to the manufacturer's instructions, and 10 μL were added to each plate well. After a twenty minute incubation at room temperature, luminescence was read on an EnVision® Multilabel Reader (PerkinElmer Inc., Waltham, Mass.). For the mass spectrometry assay, 10 μL of supernatant from each well of the compound-treated plates were added to 40 μL of acetonitrile, containing 10 μM of an internal standard for normalization, in 384-well, polypropylene, V-bottom plates (Greiner Bio-One, Kremsmünster, Austria) to extract the organic analytes. Following centrifugation at 2000 rpm for 10 minutes, 10 μL from each well of the acetonitrile extraction plates were added to 90 μL of sterile, distilled H2O in 384-well, polypropylene, V-bottom plates for analysis of kynurenine and the internal standard on the RapidFire 300 (Agilent Technologies, Santa Clara, Calif.) and 4000 QTRAP MS (SCIEX, Framingham, Mass.). MS data were integrated using Agilent Technologies' RapidFire Integrator software, and data were normalized for analysis as a ratio of kynurenine to the internal standard. […]

[2] = target: indoleamine 2, 3-dioxygenase (IDO1) (Homo sapiens, UniProt P14902); assay: IDO1 HeLa RapidFire MS assay (kynurenine detection by mass spectrometry); format: cell-based; set-up: to induce the expression of indoleamine 2, 3-dioxygenase (IDO1); conditions: HeLa cells, pIC50, read-out: IDO1_HELA_PXC50 (converted)
Sequence of indoleamine 2, 3-dioxygenase (IDO1) (P14902 whole entry): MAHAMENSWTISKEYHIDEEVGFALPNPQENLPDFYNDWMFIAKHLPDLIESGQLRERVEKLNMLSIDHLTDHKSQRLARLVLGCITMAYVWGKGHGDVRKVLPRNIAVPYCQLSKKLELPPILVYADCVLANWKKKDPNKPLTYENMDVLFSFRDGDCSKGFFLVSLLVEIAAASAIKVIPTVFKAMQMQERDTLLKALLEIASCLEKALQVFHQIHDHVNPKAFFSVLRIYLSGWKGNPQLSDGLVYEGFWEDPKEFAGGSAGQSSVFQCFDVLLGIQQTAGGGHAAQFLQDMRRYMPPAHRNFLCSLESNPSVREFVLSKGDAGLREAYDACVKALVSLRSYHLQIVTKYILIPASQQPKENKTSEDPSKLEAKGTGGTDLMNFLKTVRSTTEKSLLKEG
Description: IDO1 HeLa RapidFire MS Assay
as §1, §2, §3, §4

| IC50 [2] | Structure (SMILES) | HELA_IDO1_TOX_PXC50 [1] |
| --- | --- | --- |
| 3160 nM | CC(C)CN(c1ccc(C(C)CC(=O)O)cc1NC1CCN(C)C1)C1CCCCC1 (stereo not shown) [example 144, 3-{4-[cyclohexyl(2-methylpropyl)amino]-3-[(1-methylpyrrolidin-3-yl)amino]phenyl}butanoic acid] | <5 |
| 12600 nM | CC(C)CN(CC(C)C)c1ccc(C(C)CC(=O)O)cc1Nc1c(Nc2ccccc2)c(=O)c1=O (stereo not shown) [example 124, 3-{4-[bis(2-methylpropyl)amino]-3-{(3,4-dioxo-2-(phenylamino)cyclobut-1-en-1-yl]amino}phenyl}butanoic acid] | <4.3 |
| 79.4 nM | Cc1nnc(Nc2cc([C@H](C)CC(=O)O)ccc2N(CC(C)C)CC(C)C)s1 [example 186, (3R)-3-{4-[bis(2-methylpropyl)amino]-3-[(5-methyl-1,3,4-thiadiazol-2-yl)amino]phenyl}butanoic acid] | <5 |
| 794 nM | COCCN(c1ccc(-c2ccccc2C(=O)O)cc1Nc1nc2ccccc2[nH]1)C1CCCCC1 [example 285, 3′-[(1H-1,3-benzodiazol-2-yl)amino]-4′-[cyclohexyl(2-methoxyethyl)amino]-[1,1′-biphenyl]-2-carboxylic acid] | <5 |
| 1260 nM | Cc1nnc(Nc2cc(C(C)CC(=O)O)ccc2N(CC(C)C)CC(C)C)o1.O=C(O)C(F)(F)F (stereo not shown) [example 125, 3-{4-[bis(2-methylpropyl)amino]-3-[(5-methyl-1,3,4-oxadiazol-2-yl)amino]phenyl}butanoic acid] | <4.3 |
| > 10000 nM | CC(C)CN(CC(C)C)c1ccc(C(C)CC(=O)O)cc1Nc1ccc(NS(C)(=O)=O)cn1 (stereo not shown) [example 200, 3-{4-[bis(2-methylpropyl)amino]-3-[(5-methanesulfonamido-pyridin-2-yl)amino]phenyl}butanoic acid] | <5 |
| 126 nM | COCc1nnc(Nc2cc(C(C)CC(=O)O)ccc2N(CC(C)C)CC(C)C)s1 (stereo not shown) [example 188, 3-{4-[bis(2-methylpropyl)amino]-3-{[5-(methoxymethyl)-1,3,4-thiadiazol-2-yl]amino}phenyl}butanoic acid] | <5 |
| 3160 nM | CC(C)CN(c1ccc(C(C)CC(=O)O)cc1Nc1nc2n(n1)CCCC2)C1CCCCC1 (stereo not shown) [example 150, 3-{4-[cyclohexyl(2-methylpropyl)amino]-3-({5H,6H,7H,8H-[1,2,4]triazolo[1,5-a]pyridin-2-yl}amino)phenyl}butanoic acid] | <5 |
| 2510 nM | CC(C)CN(CC(C)C)c1ccc(-c2ccccc2C(=O)O)cc1Nc1ccn(C)n1 [example 280, 4′-[bis(2-methylpropyl)amino]-3′-[(1-methyl-1H-pyrazol-3-yl)amino]-[1,1′-biphenyl]-2-carboxylic acid] | <5 |
| 501 nM | CC(C)CN(c1ccc([C@H](C)CC(=O)O)cc1NC1CCC[C@@H](C)C1)C1CCCCC1 (stereo partly drawn) [example 184, (3R)-3-{4-[cyclohexyl(2-methylpropyl)amino]-3-{[(3R)-3-methylcyclohexyl]amino}phenyl}butanoic acid] | <5 |
| 3980 nM | CC(=O)N1CCC(Nc2cc(C(C)CC(=O)O)ccc2N(CC(C)C)C2CCCCC2)C1 (stereo not shown) [example 135, 3-{3-[(1-acetylpyrrolidin-3-yl)amino]-4-[cyclohexyl(2-methylpropyl)amino]phenyl}butanoic acid] | <5 |
| 6310 nM | CC(=O)Nc1ccc(Nc2cc(C(C)CC(=O)O)ccc2N(CC(C)C)CC(C)C)nc1 (stereo not shown) [example 199, 3-{4-[bis(2-methylpropyl)amino]-3-[(5-acetamidopyridin-2-yl)amino]phenyl}butanoic acid] | <5 |
| 100 nM | CC(C)CN(c1ccc(-c2ccncc2C(=O)O)cc1Nc1nc2ccccc2o1)C1CCCCC1 [example 281, 4-{3-[(1,3-benzoxazol-2-yl)amino]-4-[cyclohexyl(2-methylpropyl)amino]phenyl}pyridine-3-carboxylic acid] | <5 |
| 158 nM | CC(C)CN(CC(C)C)c1ccc(C(C)CC(=O)O)cc1Nc1nncs1 (stereo not shown) [example 196, 3-{4-[bis(2-methylpropyl)amino]-3-[(1,3,4-thiadiazol-2-yl)amino]phenyl}butanoic acid] | <5 |
| 50.1 nM | CC(C)CN(c1ccc(-c2ccccc2C(=O)NS(C)(=O)=O)cc1Nc1nc(C(F)(F)F)ns1)C1CCCCC1 [example 282, 4′-[cyclohexyl(2-methylpropyl)amino]-N-methanesulfonyl-3-′ {[3-(trifluoromethyl)-1,2,4-thiadiazol-5-yl]amino}-[1,1′-biphenyl]-2-carboxamide] | <5 |
| 6310 nM | CC(C)CN(c1ccc(-c2ccccc2C(=O)O)cc1Nc1nc(C(=O)O)ns1)C1CCCCC1 [example 275, 5-({2′-carboxy-4-[cyclohexyl(2-methylpropyl)amino]-[1,1′-biphenyl]-3-yl}amino)-1,2,4-thiadiazole-3-carboxylic acid] | <5 |
| 631 nM | CC(C)CN(c1ccc(-c2ccccc2C(=O)O)cc1Nc1nc2ccccc2[nH]1)C1CCOCC1 [example 296, 3′-[(1H-1,3-benzodiazol-2-yl)amino]-4′-[(2-methylpropyl)(oxan-4-yl)amino]-[1,1′-biphenyl]-2-carboxylic acid] | <5 |
| 1580 nM | CC(C)CN(CC(C)C)c1ccc(C(C)CC(=O)O)cc1Nc1nnc(N)s1 (stereo not shown) [example 208, 3-{3-[(5-amino-1,3,4-thiadiazol-2-yl)amino]-4-[bis(2-methylpropyl)amino]phenyl}butanoic acid] | <5 |
| 631 nM | CC(C)CN(CC(C)C)c1ccc(C(C)CC(=O)O)cc1Nc1nc2c(s1)CCCC2 (stereo not shown) [example 131, 3-{4-[bis(2-methylpropyl)amino]-3-[(4,5,6,7-tetrahydro-1,3-benzothiazol-2-yl)amino]phenyl}butanoic acid] | 4.7 |
| 2510 nM | COc1ccnc(Nc2cc(C(C)CC(=O)O)ccc2N(CC(C)C)CC(C)C)n1.O=C(O)C(F)(F)F (stereo not shown) [example 127, 3-{4-[bis(2-methylpropyl)amino]-3-[(4-methoxypyrimidin-2-yl)amino]phenyl}butanoic acid] | <4.3 |
| 1580 nM | CC(C)CN(c1ccc(C(C)CC(=O)O)cc1NC1COC1)C1CCCCC1 (stereo not shown) [example 129, 3-{4-[cyclohexyl(2-methylpropyl)amino]-3-[(oxetan-3-yl)amino]phenyl}butanoic acid] | <4.3 |

| Structure (SMILES) | IC50 [2] | HELA_IDO1_TOX_PXC50 [1] |
| --- | --- | --- |
| CC(C)CN(c1ccc(-c2ccccc2C(=O)O)cc1Nc1nc(C(F)(F)F)ns1)C1CCN(C(=O)OC(C)(C)C)CC1 [example 273, 4′-({1-[(tert-butoxy)carbonyl]piperidin-4-yl)-(2-methylpropyl)amino)-3′-{[3-(trifluoromethyl)-1,2,4-thiadiazol-5-yl]amino}-[1,1′-biphenyl]-2-carboxylic acid] | 7.94 nM | <5 |
| CC(C)CN(c1ccc(-c2ccccc2C(=O)O)cc1Nc1nc(C(F)(F)F)ns1)C1CCN(C)CC1 [example 274, 4′-[(1-methylpiperidin-4-yl)(2-methylpropyl)amino]-3′-{[3-(trifluoromethyl)-1,2,4-thiadiazol-5-yl]amino}-[1,1′-biphenyl]-2-carboxylic acid] | 1000 nM | <5 |
